Columns and labels:
[1] = tested on: spontaneous movements of rats; assay: Determination of the Motor Activity; type: in vivo; details: Rattus norvegicus, po, 2 hours, dosage which reduces mobility to 40% of untreated animals
Description: Groups each comprising three rats (200 g) are confined in large cages. The test animals can adapt themselves to the new surroundings for 30 minutes; subsequently the test substance is administered to them orally. The spontaneous movements are registered automatically for 2 hours by means of infrared light barriers. The ED40 is that dosage which reduces to 40% the mobility of the test animals in comparison to the untreated animals.

Anti-pentetrazole Test = type: in vivo, female mice; details: Mus musculus, po, 0.5 h; p.o., mice, 30 minutes before i.v. pentetrazole; dosage giving convulsive threshold ratio treated:untreated of 2:1; read-out: Anti-pentetrazole test, PR 2.0
Description: The compound to be tested is administered orally to groups of 6 female mice (19-21 g) and 30 minutes later there is administered intravenously (0.375 ml/minute) a 0.5 percent solution of pentetrazole in sodium chloride solution. The time from the beginning of the infusion until tonic stretchings of the hind limbs appear is measured and therefrom there is calculated the dosage of penetetrazole administered up to this point in time, which is denoted as the convulsive threshold dosage. The PR2.0 is that dosage of the test substance which is required in order that the ratio of the convulsive threshold dosage in treated animals to the convulsive threshold dosage in untreated animals amounts to 2:1.

squirrel monkeys = assay: Conflict Test in Monkeys; type: in vivo, male squirrel monkeys; details: for minimal effective dose: Saimiri, in Primates, po, read-out: Conflict test in monkeys, MED (smallest significant effective dosage); for Conflict test in monkeys, HED (highest significant effective dosage): p.o.
Description: A two-key Skinner box with a feed pellet dispenser is used as the test apparatus. 13 fasted, male squirrel monkeys weighing 0.8 to 1 kg are used as the test animals. Upon pressing one of the keys the test animals receive a feed pellet on average every 6 minutes. Upon pressing the other key the test animals receive a feed pellet four times more frequently (i.e. on average every 1.5 minutes), but they are simultaneously punished with an electric foot-shock. The foot-shock causes a reduction in the pressing of the key which gives more frequent feed pellets. […] The smallest (MED) and the highest significant effective dosage (HED) are thereby determined.

[2] = Anti-3-mercaptopropionic Acid Test; type: in vivo, female mice; details: Mus musculus, po, 0.5 h; p.o., mice, 30 minutes before 48.8 mg/kg i.p. 3-mercaptopropionic acid; Probit method
Description: The compound to be tested is administered orally to female mice (19-21 g) and 30 minutes later there are administered i.p. 48.8 mg/kg of 3-mercaptopropionic acid, a dosage which in untreated animals causes after 4 minutes emprosthotonus and tonic stretching of the hind limbs. 12 mice are used per dosage. At least 6 to 8 different dosages are tested. The number of protected test animals per dosage group is determined and the ED50 is determined therefrom by means of the Probit method.

[3] = acute toxicity, single oral administration to mice; details: mouse, in vivo, p.o.
Excerpt: Some representative members of the class of compound defined by formula I have been investigated in the tests described below, and it has been shown that in rats and monkeys they display pronounced anxiolytic properties. Moreover, the Table contains data concerning the acute toxicity of these compounds (LD50 in the case of single oral administration to mice).

rats = assay: Conflict Test in Rats; type: in vivo; details: Rattus norvegicus, po, 30 minutes before 1-hour conflict test; Wilcoxon test; read-out: Conflict test in rats, FSD (first significant anxiolytically-effective dosage)
Description: The test apparatus is a one-key Skinner box with a feed pellet dispenser. For the testing of potential anxiolytics there are generally used 8 fasted rats per substance and dosage. In this case, there are used rats only which respond to the known anxiolytic chlordiazepoxide.
The test substances, which are dissolved or suspended in a mixture of 10 ml of distilled water and 2 drops of Tween 80, are administered to the test animals with the aid of a probang 30 minutes before the 1-hour conflict test. During the experiment, in which each key press for a feed pellet is combined with a foot-shock (conflict), the number of key operations is registered. In this case, each test animal serves as its own control, in that it is pre-treated once with test substance and once with sodium chloride solution.
The first significant anxiolytically-effective dosage (FSD) is determined with the Wilcoxon test (comparison of pairs) by comparing the number of key operations in the main test (feed pellet+foot-shock, after pre-treatment with test substance) directly with the number of key operations in the control test (feed pellet+foot-shock, after pre-treatment with sodium chloride solution).

## NCc1nnc2n1-c1ccc(Cl)cc1C(c1ccccc1F)=CC2 [Compound B, 1-(aminomethyl)-8-chloro-6-(2-fluorophenyl)-4H-s-triazolo[4,3-a][1]benzazepine]
[1]
  ED40: > 100 mg/kg
Anti-pentetrazole Test
  ED (2-fold convulsive threshold): 5.8 mg/kg
Squirrel monkeys
  minimal effective dose: 1.25 mg/kg
  Conflict test in monkeys, HED (highest significant effective dosage): 10 mg/kg
[2]
  ED50: 3.7 mg/kg
[3]
  LD50: 1000 to 2000 mg/kg
rats
  minimal effective dose: 100 mg/kg

## Cc1nnc2n1-c1ccc(Cl)cc1C(c1ccccc1F)=CC2 [Compound C, 8-chloro-6-(2-fluorophenyl)-1-methyl-4H-s-triazolo[4,3-a][1]benzazepine]
[1]
  ED40: 77 mg/kg
Anti-pentetrazole Test
  ED (2-fold convulsive threshold): 4 mg/kg
Squirrel monkeys
  minimal effective dose: 10 mg/kg
  Conflict test in monkeys, HED (highest significant effective dosage): > 80 mg/kg
[2]
  ED50: 1.9 mg/kg
[3]
  LD50: > 5000 mg/kg
rats
  minimal effective dose: 3 mg/kg

## O=c1[nH]nc2n1-c1ccc(Cl)cc1C(c1ccccc1F)=CC2 [Compound A, 8-chloro-6-(2-fluorophenyl)-2,4-dihydro-1H-s-triazolo[4,3-a][1]benzazepin-1-one]
[1]
  ED40: > 300 mg/kg
Anti-pentetrazole Test
  ED (2-fold convulsive threshold): 4.1 mg/kg
Squirrel monkeys
  minimal effective dose: 1.25 mg/kg
  Conflict test in monkeys, HED (highest significant effective dosage): > 80 mg/kg
[2]
  ED50: 6 mg/kg
[3]
  LD50: > 5000 mg/kg
rats
  minimal effective dose: 3 mg/kg

Reference: patent publication US4464300A, “Triazolo benzazepines” (Hoffmann-La Roche Inc., priority 1981, dated 1984)
